4 compounds from patent US20060018864A1, “Cosmetic preparation containing glycerylamino acid derivative” (priority 2002, published 2006) can be followed below.

A short description of data set [1]: Moisture-absorption ability measurement employing keratin powder (ground wool). It counts as physicochemical. Conditions: keratin powder with sample, 20° C., 79.2% relative humidity, 48 hours; absorbed water per 1 g of keratin powder. Here is the method: [Method of Moisture-Absorption Ability Measurement Carried Out by Employing Keratin Powder (Ground Wool)]
Moisture-absorption ability was evaluated by the following criteria.
Moisture-absorption ability rating criteria • ⊚: Amount of absorbed water per 1 g of keratin powder is 0.60 g or more. • ◯: Amount of absorbed water per 1 g of keratin powder is 0.50 g or more and less than 0.60 g • Δ: Amount of absorbed water per 1 g of keratin powder is 0.40 g or more and less than 0.50 g • X: Amount of absorbed water per 1 g of keratin powder is less than 0.40 g [Method of Moisturizing Effect Measurement Carried Out by Employing Keratin Powder (Ground Wool)]

The nature of data set [2]: Moisturizing effect measurement employing keratin powder (ground wool). It counts as physicochemical. As to conditions: (B/A)×100: water retained after further 6 hours at 20° C., 20.0% relative humidity, relative to water absorbed at 79.2% relative humidity for 48 hours. Here is the method: For the constant-humidity bath under 20.0% of relative humidity, saturated aqueous potassium acetate solution was employed.
Moisturizing effect was evaluated by the following criteria,
Moisturizing effect rating criteria • ⊚: 60 or more • ◯: 50 or more and less than 60 • Δ: 40 or more and less than 50 • X: Less than 40

Data set [3] relates to skin (forearm of panelists). The data set can be described thus: Moisturizing effect on skin: skin conductance (SKICON200-EX) on forearm of panelists. It counts as in vivo, human. Conditions: for change in vivo at 5 %: Homo sapiens, topical, 20 min, read-out: Moisturizing effect on skin. Here is the method: Evaluation was carried out in a manner that forearm of panelists was washed and then applied with 100 μl of aqueous amino acid N-glyceryl derivative solution prepared in 5% concentration. Then, conductance value of the skin was measured by SKICON200-EX (manufactured by IBS K. K.) before the application and in 20 minutes elapsed after the application.
Moisturizing effect on skin was evaluated by the following criteria.
Moisturizing effect on skin rating criteria • ◯: Conductance changing ratio is 10% more • □: Conductance changing ratio is 3% or more and less than 10% • X: Conductance changing ratio is less than 3.

The nature of data set [4]: Stability evaluation: odor of sample solution after storage at 50° C. for 1 month. As to conditions: for Stability: 5% by weight sample solution, sealed, 50° C., 1 month, odor, average of 5 panelists (3: no degradation odor, 1: strong degradation odor).
Description: [Method of Stability Evaluation]
After 1 month being elapsed, the sealing was opened, followed by odor of samples being evaluated by 5 panelists according to the following criteria.
Odor rating criteria • 3: No degradation odor • 2: Almost no degradation odor • 1: Strong degradation odor
Odor evaluation value of each sample was the average of values determined by 5 panelists; the evaluation result was represented by the following marks rated according to respective criteria. • ∘: 2.4 or more and less than 3 • □: 1.8 or more and less than 2.4 • X: Less than 1.8
Where [5] appears, read: 100 μl of 5% aqueous solution on washed forearm, ten panelists, conductance changing ratio before vs 20 minutes after application.

Where two headings read alike, the source gives them in different places.

As for `N[C@@H](Cc1ccccc1)C(=O)O` [Phenylalanine], the Moisture-absorption ability entry in data set [1] was “X (Amount of absorbed water per 1 g of keratin powder is less than 0.40 g)”. Moreover, in data set [2], the Moisturizing effect result is “X (Less than 40)”. In data set [3] (setting [5]), the change in vivo at 5 % is below 3%. Further, the “Formation of homogeneous solution of sample” value in data set [4] (5% by weight sample solution for stability evaluation) is listed as “did not form homogeneous solution”. Besides, the Stability entry in data set [4] was “Δ”.

Consider `CNCC(=O)O` [Sarcosine], for which the Moisture-absorption ability result in data set [1] is “Δ (Amount of absorbed water per 1 g of keratin powder is 0.40 g or more and less than 0.50 g)”. Also, the Moisturizing effect result in data set [2] is “Δ (40 or more and less than 50)”. Further, the change in vivo at 5 % in data set [3] (setting [5]) is below 3%. The Stability entry in data set [4] was “Δ”.

Consider `N[C@@H](CC(=O)[O-])C(=O)[O-].O.[Na+].[Na+]` [Sodium aspartate hydrate], for which the Moisture-absorption ability entry in data set [1] was “Δ (Amount of absorbed water per 1 g of keratin powder is 0.40 g or more and less than 0.50 g)”. In data set [2], the Moisturizing effect entry was “Δ (40 or more and less than 50)”. In addition, the “Moisturizing effect on skin” value in data set [3] (setting [5]) is reported as “Δ”. Moreover, the Stability result in data set [4] is recorded as “Δ”.

As to `N[C@@H](CCC(=O)[O-])C(=O)[O-].O.[Na+].[Na+]` [Sodium glutamate hydrate], in data set [1], the Moisture-absorption ability entry is “Δ (Amount of absorbed water per 1 g of keratin powder is 0.40 g or more and less than 0.50 g)”. Moreover, in data set [2], the Moisturizing effect result was “Δ (40 or more and less than 50)”. Besides, the change in vivo at 5 % in data set [3] was above 10%. The Stability result in data set [4] is on record as “Δ”.
